Experimental data from patent publication US12023319B2, “Carboxylic acid aromatic amides” (priority 2016, dated 2024).

Key:
[1] = test system: B6-Mice expressing the human B1 receptor; assay: Mouse model for peritonitis (thioglycollate induced, peroxidase activity in lavage); type: in vivo; settings: p.o. 30, 100 mg/kg, lavage 24 h after induction, significantly, FIG. 7
Experimental: 6. Mouse Model for Peritonitis
Black 6 (B6)-Mice expressing the human B1 receptor, lacking the murine B1 receptors which were specifically generated (B6-hBDKRB1 <tm1Arte>/N) and employed for a thioglycollate induced peritonitis model to test for effects of Bradykinin B1 receptor antagonism on peritoneal inflammation and related leukocyte trafficking which reflects the mode of actions underlying endometriosis.
Animals were treated p.o. with Compound Example 3 (doses: 30 mg/kg, 100 mg/kg) or respective vehicle (10% DMSO+90% phosphate buffered saline (PBS) alone 1 h before i.p. application of 1 ml 4% thioglycollate medium (in sterile PBS, matured for >4 weeks). The treatment with vehicle or Compund Example 3 was repeated 3 and 24 hours after induction of peritonitis. 24 h after peritonitis induction the animals were sacrificed and a lavage of peritoneal fluid performed. The resulting lavage is analysed for peroxidase enzyme activity which is reflecting number of activated neutrophils in the peritoneal cavity by peroxidase activity assay as follows:
Tetramethylbenzidine (TMB) dihydrochloride is used as a sensitive chromogen substrate for peroxidase. […]
Changes in optical densities (OD) are monitored in an ELISA plate-reader at 450 nm at 25° Celsius against the mixture of all solutions without the added sample homogenate. […]

[2] = test system: female Sprague Daley rats; assay: Isovolumetric bladder contraction model (rat); type: in vivo; settings: single administration 1 mg/kg & 15 mg/kg, compared to vehicle
From the text: 11. Isovolumetric Bladder Contraction Model (Rat) The aim of this study was to test the efficacy of Compound Examples on bladder function, in particularly on contraction frequency/intercontraction interval and contraction magnitude/contraction amplitude. The experimental setup for performing the isovolumetric bladder measurements was adapted to a previous descripted protocol (Yoshiyama M, de Groat W C. Am J Physiol Regul Integr Comp Physiol 280: […]-[…], 2001). Strong presence and target induction of BDKRB1 in comparison to BDKRB2 has been verified by gene expression analysis in bladders removed from rats after performance of the isovolumetric bladder contraction model in contrast to bladders of naïve, untreated rats. Immunohistochemistry confirmed the presence of BDKRB1 in bladders of rats after contraction, too. […] At least five cycles of isovolumetric bladder contractions were recorded before the Compound Examples or vehicle alone (PEG400/Water (50/50(v/v))) were administered via the catheter in the Vena jugularis at different dosages. About 2 minutes after compound administration the next nine contraction cycles were recorded. The change in contraction amplitude and intercontraction interval of the recorded bladder pressure and bladder contractions was calculated by comparing the means before and after compound administration using GraphPad Prism 7 program.

O=C(O)c1cc(NC(=O)C2(c3ccc(C(F)(F)F)cc3F)CC2)ccc1-c1cnn(C2CCC2)c1 [Example 3, 2-(1-Cyclobutyl-1H-pyrazol-4-yl)-5-[({1-[2-fluoro-4-(trifluoromethyl)phenyl]cyclopropyl}carbonyl)amino]benzoic acid]
signal specific for neutrophil influx into inflamed tissue (peroxidase activity) [1]: reduced | intercontraction interval (ICI) [2]: significant efficacy on prolonging | maximal pressure of bladder contractions [2]: remained unchanged
